From patent US10324099B2, “Ultrasensitive androgen receptor bioassay” (The Regents of the University of California, priority 2014, dated 2019) come the findings set out here.

The test system of the test is mutant AR-YFP. Kind of test: YFP fluorescence in reporter cell nuclei at saturating target hormone. The note with it: absence of urine. The format is cell-based.

Molecules are shown by their SMILES.

Procedure: For example, YFP fluorescence measured in the cell nuclei of urine-treated reporter cells represents both the effects of target hormone-bound nuclear-translocated mutant AR-YFP, and also the independent effects of urine on the fluorescence properties of YFP. […] Because the effect varies among samples, two aliquots of each sample are required. […] A second sample aliquot is assayed using the methods of the invention. The correction factor is used to subtract the percentage increase from the YFP fluorescence signal measurement of the second aliquot. The corrected YFP fluorescence of the sample then is used to extrapolate the target hormone levels from a standard curve.

With `C[C@]12CC[C@H]3[C@@H](CCC4=CC(=O)CC[C@@]43C)[C@@H]1CC[C@@H]2O` [testosterone], the “saturating level (YFP fluorescence in nuclei reaches a maximum)” value is listed as “about 10^−7 M”.
